Key:
LS 513 cells = assay: apoptosis / cell cycle by flow cytometry with propidium iodide; assay type: cell-based, human; settings: in the presence of intact (live or irradiated) bacteria; dose dependent
Method: A concentration of 5×10^4 cells per mL, with 6 mL per well, is used in order to obtain 3×10^5 cells per sample. The cells are prepared as indicated above. The different products are added to the wells, and an incubation of 48 hours is done. Following the incubation, the supernatants of the cells are collected in different 15 mL tubes and centrifuged at 1500 RPM during 5 minutes. The cellular pellets are then collected by decantation of the supernatant and put on ice. This stage consists in recuperating the cells in suspension. Afterwards, the adherent cellular sheet is washed with 0.5 mL trypsin-EDTA, then 0.2 mL trypsin-EDTA is added to each well to allow the cells to detach when they are incubated for around 8 minutes in the incubator at 37° C. The cells are suspended in 3 mL of complete RPMI 10% FCS to stop the enzymatic activity of trypsin. […] Different peaks are formed due to the differences in fluorescence existing between each phase of the cellular cycle. The more the content of intact DNA is high, the more the fluorescence is high and vice-versa. The program measures the percentage of fluorescence that the large spike forms under the corresponding spike of G0-G1, this spike represents pieces of fragmented DNA, consequence of the cleavage of DNA by different enzymes activated during apoptosis.

colon cancer cells = assay: addition of butyrate, apoptosis of colon cancer cells in vitro; assay type: cell-based, human
Method: The plate of cancer cells containing 3×10^5 cells per well is incubated overnight to allow the cells to adhere. Then, the different concentrations of butyric acid (Sigma, St-Louis, USA) are added to the wells containing the adherent cells and the culture medium, the complete RPMI. After this addition, a 48 hour incubation is done in order to measure the percentage of apoptosis according to the technique described hereinafter.
A dose of 5FU (100 μg/mL) as well as different doses (2 mM and 4 mM) of butyric acid (ba) are added to the cancerous colon cells. Apoptosis is measures after a 48 hour incubation.

human colon cancer = settings: mice; cited from earlier work

| SMILES | efficacy of the anticancer agent (LS 513 cells) | apoptosis in colon cancer cells in vitro (colon cancer cells) | in vivo growth of human colon cancer (human colon cancer) |
| --- | --- | --- | --- |
| O=c1[nH]cc(F)c(=O)[nH]1 [5FU, 5-fluorouracil] | considerably increased | – | – |
| CCCC(=O)O [butyric acid] | – | causes apoptosis | inhibits the in vivo growth |

Reference: patent publication US7887794B2, “Lactic acid bacteria and their use in the treatment of cancer” (Bio-K Plus International, Inc., priority 2001, dated 2011)
